According to PubChem BioAssay AID977628 (Broad Institute, 2014):
Records with an inconclusive call do not appear. Active and inactive are the calls of the source.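 How the source made its calls: active means compound lowering the normal-ribosome reporter at least twice as much as the humanized-ribosome reporter, growth loss under a set limit; inconclusive means no clear call, values can overlap the other calls; inactive means the rest.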

Experiments:
[1] = test system: E. coli mixed WT/h24 culture total growth, OD600, 24 h; experiment: growth of wild-type and h24-humanized E. coli strains – h24 mutant RFP vs wild-type GFP, cherry-pick, dose response (AID 977628)
[2] = test system: E. coli WT GFP strain growth, fluorescence, 24 h; experiment: as above

| Structure (SMILES) | AC50 [1] | AC50 [2] |
| --- | --- | --- |
| COc1ccc(-c2nc3ccc(Cl)cn3c2Cc2cccc(F)c2)cc1OC | 51.6 µM | > 100 µM (inactive) |
| COc1ccc(C)cc1NC(=O)c1nn(C)cc1Br | > 100 µM | > 100 µM (inactive) |
| COc1ccc(C2=Nc3ccccc3NC(=O)C2N(C(=O)c2ccnc3ccccc23)c2ccccc2)cc1 (stereo unspecified) | 43 µM | > 100 µM (inactive) |
| O=C(Cc1cccc(NC(=O)C2CCCN(C(=O)CCc3ccccc3)C2)c1)Nc1cccc(C(=O)N2CCCC2)c1 (stereo unspecified) | > 100 µM | > 100 µM (inactive) |
| Cc1cccc(OCCC(=O)Nc2ccc(F)c(F)c2)c1 | > 100 µM | > 100 µM (inactive) |
| Cc1ccc(C(=O)Nc2cccc(-c3cn4ccccc4n3)c2)cc1 | 51.5 µM | > 100 µM (inactive) |
| NC(=O)c1ccsc1NC(=O)COC(=O)CCOc1ccccc1 | 46.3 µM | > 100 µM (inactive) |
| CCc1ccc(NC(=O)COC(=O)CCCC2=NS(=O)(=O)c3ccccc3N2)cc1 | > 100 µM | > 100 µM (inactive) |
| CCn1c(-c2ccccc2Cl)nn(CC(=O)Nc2ccccc2OC)c1=S | > 100 µM | > 100 µM (inactive) |
| CCN(c1ccccc1)S(=O)(=O)c1ccc(OC)c(OC)c1 | > 100 µM | > 100 µM (inactive) |
| CCOC(=O)c1ccc(CC(=O)c2oc3cc(O)ccc3c2C)o1 | > 100 µM | > 100 µM (inactive) |
| Cc1ccccc1CSCC(=O)Nc1ccccc1F | > 100 µM | > 100 µM (inactive) |
| Cc1cc(NC(=O)COC(=O)CSCc2ccc(Cl)c(Cl)c2)no1 | > 100 µM | > 100 µM (inactive) |
| CCCc1nc2oc3c(NCCCN(C)C)ncnc3c2c2c1CCCC2 | > 100 µM | > 100 µM (inactive) |
| CN(C)C(=O)c1ccc(NC(=O)CSc2nc3ccccc3[nH]2)cc1 | > 100 µM | > 100 µM (inactive) |
| Nc1[nH]c(C(=O)c2ccccc2)c(-c2ccc(Cl)cc2)c1C(=O)NCCc1c[nH]c2ccccc12 | > 100 µM | > 100 µM (inactive) |
| CCn1cc(Cl)c(C(=O)Nc2cccc(C(F)(F)F)c2)n1 | > 100 µM | > 100 µM (inactive) |
| CCN(CC(=O)Nc1cccc(C#N)c1)CC(=O)Nc1cccc(OC)c1 | > 100 µM | > 100 µM (inactive) |
| Cc1c(C(=O)O)oc2ccc(S(=O)(=O)NC3CCCCCCC3)cc12 | 41.4 µM | > 100 µM (inactive) |
| CC(C)Oc1cccc(C(=O)C2CCCN(Cc3ccc4nonc4c3)C2)c1 (stereo unspecified) | 36.8 µM | > 100 µM (inactive) |
| O=C(Cc1coc2cc(O)ccc12)N1CCN(S(=O)(=O)c2ccc(Br)cc2)CC1 | 50.5 µM | > 100 µM (inactive) |

| Structure (SMILES) | AC50 [1] | AC50 [2] |
| --- | --- | --- |
| CC(=O)c1c(N2CCOCC2)nc2ccc(Cl)cc2c1-c1ccccc1 | > 100 µM | > 100 µM (inactive) |
| O=C(COn1nnc2ccc(C(F)(F)F)cc21)Nc1c(Cl)cccc1Cl | > 100 µM | > 100 µM (inactive) |
| CN(C)Cc1nc2ccccc2c(=O)n1Cc1nc(-c2cccc([N+](=O)[O-])c2)cs1 | > 100 µM | > 100 µM (inactive) |
| O=C(Nc1ccc(F)cc1)N1CCCCN2[C@@H](CO)[C@H](c3ccc(-c4ccncc4)cc3)[C@@H]2C1 | > 100 µM | > 100 µM (inactive) |
| CN(Cc1ccccc1)C(=O)c1[nH]cnc1C(=O)NCc1ccccc1 | > 100 µM | > 100 µM (inactive) |
| OCCN(Cc1ccccc1)Cc1ccc(Cl)cc1 | > 100 µM | > 100 µM (inactive) |
| C=CCn1c(-c2cc3cccc(OC)c3o2)n[nH]c1=S | > 100 µM | > 100 µM (inactive) |
| Cc1cccc(-c2ccc([C@H]3[C@H](CO)N4CCCCN(S(=O)(=O)c5ccccc5C)C[C@@H]34)cc2)c1 | > 100 µM | > 100 µM (inactive) |
| CC(=O)Nc1ccc(S(=O)(=O)Nc2cccc(-c3nc4cc(C)ccc4o3)c2)cc1 | > 100 µM | > 100 µM (inactive) |
| O=C(NCc1ccc(-c2nc3ccccc3s2)cc1)c1ccco1 | 4.43 µM | > 100 µM (inactive) |
| CCOc1ccc(S(=O)(=O)Nc2ccc(S(=O)(=O)N3CCCC3)cc2)cc1 | 40.8 µM | > 100 µM (inactive) |
| Cc1ccc(C)c(-c2[nH]ncc2CN2CCCC(CO)(Cc3ccccc3C)C2)c1 (stereo unspecified) | > 100 µM | > 100 µM (inactive) |
| CCOc1ccc(CCNC(=O)CCc2nc3ccccc3[nH]2)cc1OCC | > 100 µM | > 100 µM (inactive) |
| COc1ccc(CNC(=O)c2cc3c(s2)CN(Cc2ccccc2)C3)cc1 | > 100 µM | > 100 µM (inactive) |
| COC(=O)[C@@H](Cc1c[nH]c2ccccc12)NCc1cccc(B(O)O)c1 | > 100 µM | > 100 µM (inactive) |
| NC(=O)C1Cc2ccccc2CN1C(=O)c1cc(C2CC2)nn1-c1ccccc1 (stereo unspecified) | 46.8 µM | > 100 µM (inactive) |
| CN1c2ccc(C#Cc3cccnc3)cc2[C@@H]2[C@@H](CCN2C(=O)c2cccc(F)c2)[C@H]1CO | > 100 µM | > 100 µM (inactive) |
| CC(CCc1ccccc1)NC(=O)CNC(=O)COc1ccccc1 (stereo unspecified) | > 100 µM | > 100 µM (inactive) |
| CCN(c1ccccc1)S(=O)(=O)c1ccc(Cl)c(C(=O)NCc2ccco2)c1 | 38.5 µM | > 100 µM (inactive) |
| COc1ccc(-c2ccccc2)cc1NC(=O)c1ccncc1 | > 100 µM | > 100 µM (inactive) |
| CCN(CC)S(=O)(=O)c1ccc(O)c(C(=O)OCC(=O)NC23CC4CC(CC(C4)C2)C3)c1 | > 100 µM | > 100 µM (inactive) |

| Structure (SMILES) | AC50 [1] | AC50 [2] |
| --- | --- | --- |
| CCCn1c(=O)c2ccccc2n2c(SCCOc3ccc(OC)cc3)nnc12 | > 100 µM | > 100 µM (inactive) |
| COc1ccc(OC)c(-c2csc(NC(=O)C3COc4ccccc4O3)n2)c1 (stereo unspecified) | > 100 µM | > 100 µM (inactive) |
| Cc1ccccc1COc1ccc(-c2nn[nH]n2)cc1 | 39.4 µM | > 100 µM (inactive) |
| C[C@@H]1CN([C@@H](C)CO)C(=O)c2cccc(NC(=O)Nc3ccccc3)c2O[C@@H]1CN(C)S(=O)(=O)c1ccc(Cl)cc1 | 49.6 µM | > 100 µM (inactive) |
| O=[N+]([O-])c1ccccc1Oc1ccc(Cl)c2cccnc12 | > 100 µM | > 100 µM (inactive) |
| COC(=O)C(Cc1csc2ccc(Cl)cc12)NC(=O)c1ccc(Cl)cc1 (stereo unspecified) | 31 µM | > 100 µM (inactive) |
| O=S(=O)(Nc1ccc(-c2cnco2)cc1)c1ccccc1 | > 100 µM | > 100 µM (inactive) |
| Cc1ccc2nc(N(CCN(C)C)C(=O)C3CCN(S(=O)(=O)c4cccs4)CC3)sc2c1 | > 100 µM | > 100 µM (inactive) |
| COc1ccc(S(=O)(=O)N2CCCCN3[C@@H](CO)[C@H](c4ccc(C#CC(C)C)cc4)[C@@H]3C2)cc1 | 47 µM | > 100 µM (inactive) |
| COc1ccc(NS(=O)(=O)c2cccc3ccccc23)cc1 | 40.6 µM | > 100 µM (inactive) |
| COc1ccc(CC(=O)NCc2csc(-c3cccs3)n2)cc1OC | > 100 µM | > 100 µM (inactive) |
| O=C(Nc1cccc(S(=O)(=O)N2CCCCC2)c1)c1ccc(Cl)nc1 | > 100 µM | > 100 µM (inactive) |
| COc1ccc(OC)c(NC(=O)COC(=O)C2CCN(C(=O)c3ccc(Cl)cc3)CC2)c1 | > 100 µM | > 100 µM (inactive) |
| Cc1cc(C(=O)OCC(=O)Nc2cccc(S(N)(=O)=O)c2)c2ccccc2n1 | > 100 µM | > 100 µM (inactive) |
| COc1cc(OC)cc(C(=O)Nc2ccc(S(=O)(=O)Nc3cnc4ccccc4n3)cc2)c1 | 42.2 µM | > 100 µM (inactive) |
| Cc1onc(-c2ccccc2Cl)c1C(=O)N[C@@H](C)c1ccccc1 | > 100 µM | > 100 µM (inactive) |
| CCC(=O)Nc1nc2c(OC)ccc(OC)c2s1 | > 100 µM | > 100 µM (inactive) |
| COc1ccccc1N1CCN(Cc2ccc(OC)c3ccccc23)CC1 | > 100 µM |  |
| COc1ccc(OCCC(=O)OCC(=O)NCCC2=CCCCC2)cc1 | > 100 µM |  |
| CC1CCCC(NC(=O)COC(=O)[C@@H]2CC(O)CN2S(=O)(=O)c2ccc3c(c2)OCCO3)C1C (stereo partly specified) | > 100 µM |  |
| COC(=O)c1ccc(OCC(=O)c2ccccc2OC)cc1 | > 100 µM |  |

| Structure (SMILES) | AC50 [1] | AC50 [2] |
| --- | --- | --- |
| CS(=O)(=O)Nc1ccccc1C(=O)NCCSc1ccccc1 | > 100 µM |  |
| COC(=O)CNC(=O)COC(=O)c1ccc(Cl)nc1 | > 100 µM |  |
| O=C(C[n+]1ccn(-c2ccccc2)c1)c1ccc([N+](=O)[O-])cc1 | > 100 µM |  |
| COc1cc2c(cc1OC)CN(CC(=O)Nc1ccccc1SC)CC2 | > 100 µM |  |
| COc1cc(OC)c(NS(=O)(=O)c2cccc(C(=O)OCC(=O)NCC3CCCO3)c2)cc1Cl (stereo unspecified) | > 100 µM |  |
| Brc1ccccc1Cn1c(-c2cncs2)nc2ccccc21 | > 100 µM |  |
| Cc1ccn2cc(-c3cccc(NC(=O)c4cccs4)c3)nc2c1 | > 100 µM |  |
| COCC#Cc1ccc2c(c1)O[C@H](CN(C)C(=O)c1ccccc1)[C@@H](C)CN([C@H](C)CO)S2(=O)=O | > 100 µM |  |
| CCC(C(=O)Nc1ccsc1C(=O)OC)c1ccccc1 (stereo unspecified) | > 100 µM |  |
| COc1ccc(NC(=O)Nc2cccc3c2O[C@H](CN(C)S(=O)(=O)c2ccc(Cl)cc2)[C@@H](C)CN([C@@H](C)CO)C3=O)cc1 | > 100 µM |  |
| CN(C)S(=O)(=O)c1ccc(Cl)c(C(=O)OCC(=O)NC(=O)c2cccn2C)c1 | > 100 µM |  |
| CN(CCOc1ccccc1)S(=O)(=O)c1ccccc1C#N | > 100 µM |  |
| O=C(COC(=O)CCC(=O)c1ccc(F)cc1)Nc1cccc(S(=O)(=O)N2CCCC2)c1 | > 100 µM |  |
| COCc1c(C#N)c(NCCc2ccc(F)cc2)nc(C)c1[N+](=O)[O-] | > 100 µM |  |
| CCCCc1cc2c(cc1NC(=O)CN1CCCCC1)OCCO2 | > 100 µM |  |
| Cc1cccc(NC(=O)c2c(C)nn(-c3ccccc3)c2Cl)c1 | > 100 µM |  |
| COc1ccc(C(=O)C[n+]2ccc3c(c2)nc(-c2cc(OC)c(OC)cc2OC)n3C)cc1 | > 100 µM |  |
| O=S(=O)(Nc1ccccc1N1CCCCC1)c1cccs1 | > 100 µM |  |
| COc1ccc(OC)c(S(=O)(=O)Nc2cccc3ccc(O)cc23)c1 | > 100 µM |  |
